Measured values taken from US6855710B2, “Substituted indolines with an inhibitory effect on various kinases and complexes of CDKs” (Boehringer Ingelheim Pharma KG, priority 1998, dated 2005).

Compared with `CC(=O)N(C)c1ccc(N/C(=C2\C(=O)Nc3ccccc32)c2ccccc2)cc1` [Example 47, (Z)-3-{1-[4-(N-acetyl-N-methyl-amino)-phenylamino]-1-phenyl-methylidene}-2-indolinone], `CC(=O)c1ccc(N/C(=C2\C(=O)Nc3ccccc32)c2ccccc2)cc1` [Example 60, (Z)-3-[1-(4-acetylphenylamino)-1-phenyl-methylidene]-2-indolinone] is lower in melting point: 287 to 288 °C for the first, 207 to 209 °C for the second.

First: CCOC(=O)CNS(=O)(=O)c1ccc(N/C(=C2\C(=O)Nc3ccccc32)c2ccccc2)cc1 [Example 406, (Z)-3-{1-[4-(ethoxycarbonylmethylaminosulphonyl)-phenylamino]-1-phenyl-methylidene}-2-indolinone]
Second: CCOC(=O)CN(C)C(=O)c1ccc(N/C(=C2\C(=O)Nc3ccccc32)c2ccccc2)cc1 [Example 394, (Z)-3-{1-[4-(N-ethoxycarbonylmethyl-N-methyl-aminocarbonyl)-phenylamino]-1-phenyl-methylidene}-2-indolinone]
The melting point of the first is higher: 196 to 199 °C for the first, 95 to 98 °C for the second.

Compared with `CN(C)C(=O)CN(C)S(=O)(=O)c1ccc(N/C(=C2\C(=O)Nc3ccc([N+](=O)[O-])cc32)c2ccccc2)cc1` [Example 415, (Z)-3-{1-[4-(N-dimethylaminocarbonylmethyl-N-methyl-aminosulphonyl)-phenylamino]-1-phenyl-methylidene}-5-nitro-2-indolinone], `CN(C)C(=O)CN(c1ccc(N/C(=C2\C(=O)Nc3ccc([N+](=O)[O-])cc32)c2ccccc2)cc1)S(=O)(=O)c1ccccc1` [Example 209, (Z)-3-{1-[4-(N-dimethylaminocarbonylmethyl-N-phenylsulphonyl-amino)-phenylamino]-1-phenyl-methylidene}-5-nitro-2-indolinone] is lower in melting point: 277 to 278 °C for the first, 160 to 162 °C for the second.

First: CN(CC(=O)O)C(=O)c1ccc(N/C(=C2\C(=O)Nc3ccccc32)c2ccccc2)cc1 [Example 395, (Z)-3-{1-[4-(N-carboxymethyl-N-methyl-aminocarbonyl)-phenylamino]-1-phenyl-methylidene}-2-indolinone]
Second: CN(CC(=O)O)C(=O)c1cccc(N/C(=C2\C(=O)Nc3ccccc32)c2ccccc2)c1 [Example 26, (Z)-3-{1-[3-(N-carboxymethyl-N-methyl-aminocarbonyl)-phenyl-amino]-1-phenyl-methylidene}-2-indolinone]
The melting point of the first is lower: 168 to 170 °C for the first, 218 to 220 °C for the second.

First: CS(=O)(=O)N(CC#N)c1ccc(N/C(=C2\C(=O)Nc3ccccc32)c2ccccc2)cc1 [Example 187, (Z)-3-{1-[4-(N-cyanomethyl-N-methylsulphonyl-amino)-phenyl-amino]-1-phenyl-methylidene}-2-indolinone]
Second: CN(c1ccc(N/C(=C2\C(=O)Nc3ccccc32)c2ccccc2)cc1)S(C)(=O)=O [Example 186, (Z)-3-{1-[4-(N-methyl-N-methylsulphonyl-amino)-phenylamino]-1-phenyl-methylidene}-2-indolinone]
The melting point of the first is lower: 266 to 268 °C for the first, 269 °C for the second.

First: O=C1Nc2ccc([N+](=O)[O-])cc2/C1=C(/Nc1ccc(CCN2CCC(O)CC2)cc1)c1ccccc1 [Example 260, (Z)-3-{1-[4-(2-(4-hydroxypiperidino)-ethyl)-phenylamino]-1-phenyl-methylidene}-5-nitro-2-indolinone]
Second: CN(Cc1ccc(N/C(=C2\C(=O)Nc3ccc([N+](=O)[O-])cc32)c2ccccc2)cc1)C1CC1 [Example 275, (Z)-3-{1-[4-((N-cyclopropyl-N-methyl-amino)-methyl)-phenylamino]-1-phenyl-methylidene}-5-nitro-2-indolinone]
The melting point of the first is higher: 274 to 276 °C for the first, 216 to 217 °C for the second.

First: CN(C)CCCNS(=O)(=O)c1ccc(N/C(=C2\C(=O)Nc3ccc([N+](=O)[O-])cc32)c2ccccc2)cc1 [Example 403, (Z)-3-{1-[4-(3-dimethylamino-propylaminosulphonyl)-phenylamino]-1-phenyl-methylidene}-5-nitro-2-indolinone]
Second: CCCS(=O)(=O)N(CCN(C)C)c1ccc(N/C(=C2\C(=O)Nc3ccc([N+](=O)[O-])cc32)c2ccccc2)cc1 [Example 310, (Z)-3-{1-[4-(N-(2-dimethylaminoethyl)-N-propylsulphonyl-amino)-phenylamino]-1-phenyl-methylidene}-5-nitro-2-indolinone]
The melting point of the first is higher: 268 to 269 °C for the first, 212 °C for the second.

First: COC(=O)CCNC(=O)c1ccc(/C(Nc2ccc(CN3CCCCC3)cc2)=C2/C(=O)Nc3ccc([N+](=O)[O-])cc32)cc1 [Example 447, (Z)-3-[1-(4-piperidinomethyl-phenylamino)-1-(4-(2-methoxycarbonyl-ethylaminocarbonyl)-phenyl)-methylidene]-5-nitro-2-indolinone]
Second: COC(=O)Cc1ccc(N/C(=C2\C(=O)Nc3ccc([N+](=O)[O-])cc32)c2ccccc2)cc1 [Example 180, (Z)-3-[1-(4-methoxycarbonylmethyl-phenylamino)-1-phenyl-methylidene]-5-nitro-2-indolinone]
The melting point of the first is lower: 130 °C for the first, 238 to 240 °C for the second.

First: Br.COCCNCCc1ccc(N/C(=C2\C(=O)Nc3ccc([N+](=O)[O-])cc32)c2ccccc2)cc1 [Example 257, (Z)-3-{1-[4-(2-(2-methoxyethylamino)-ethyl)-phenylamino]-1-phenyl-methylidene}-5-nitro-2-indolinone-hydrobromide]
Second: COCCNCc1ccc(N/C(=C2\C(=O)Nc3ccc([N+](=O)[O-])cc32)c2ccccc2)cc1 [Example 174, (Z)-3-{1-[4-(2-methoxyethylaminomethyl)-phenylamino]-1-phenyl-methylidene}-5-nitro-2-indolinone]
The melting point of the first is higher: 297 to 299 °C for the first, 184 to 185 °C for the second.

First: CCOC(=O)CN(C)C(=O)c1cccc(N/C(=C2\C(=O)Nc3ccccc32)c2ccccc2)c1 [Example 25, (Z)-3-{1-[3-(N-ethoxycarbonylmethyl-N-methyl-aminocarbonyl)-phenylamino]-1-phenyl-methylidene}-2-indolinone]
Second: Cc1cccc(N/C(=C2\C(=O)Nc3ccccc32)c2ccccc2)c1 [Example 6, (Z)-3-[1-(3-methyl-phenylamino)-1-phenyl-methylidene]-2-indolinone]
The melting point of the first is lower: 148 to 150 °C for the first, 218 to 220 °C for the second.

Compared with `CC(=O)NCCC(=O)N(C)c1ccc(N/C(=C2\C(=O)Nc3ccccc32)c2ccccc2)cc1` [Example 378, (Z)-3-{1-[4-(N-(2-acetylamino-ethylcarbonyl)-N-methyl-amino)-phenylamino]-1-phenyl-methylidene}-2-indolinone], `CN(C)Cc1ccc(N/C(=C2\C(=O)Nc3ccccc32)c2ccccc2)cc1` [Example 266, (Z)-3-{1-[4-(dimethylaminomethyl)-phenylamino]-1-phenyl-methylidene}-2-indolinone] is higher in melting point: 187 to 189 °C for the first, 237 to 240 °C for the second.

First: CN(CCN1CCOCC1)CC(=O)N(C)c1ccc(N/C(=C2\C(=O)Nc3ccccc32)c2ccccc2)cc1 [Example 374, (Z)-3-{1-[4-(N—(N-(2-morpholinoethyl)-N-methyl-aminomethyl-carbonyl)-N-methylamino)-phenylamino]-1-phenyl-methylidene}-2-indolinone]
Second: CS(=O)(=O)N(CCN1CCOCC1)c1cccc(N/C(=C2\C(=O)Nc3ccccc32)c2ccccc2)c1 [Example 325, (Z)-3-{1-[3-(N-(2-morpholinoethyl)-N-methylsulphonyl-amino)-phenylamino]-1-phenyl-methylidene}-2-indolinone]
The melting point of the first is lower: 116 to 118 °C for the first, 177 to 179 °C for the second.

First: CCNCc1ccc(N/C(=C2\C(=O)Nc3ccc([N+](=O)[O-])cc32)c2ccccc2)cc1 [Example 160, (Z)-3-[1-(4-ethylaminomethyl-phenylamino)-1-phenyl-methylidene]-5-nitro-2-indolinone]
Second: CN(Cc1ccc(N/C(=C2\C(=O)Nc3ccc([N+](=O)[O-])cc32)c2ccccc2)cc1)C1CCCCC1 [Example 232, (Z)-3-{1-[4-(N-cyclohexyl-N-methyl-aminomethyl)-phenylamino]-1-phenyl-methylidene}-5-nitro-2-indolinone]
The melting point of the first is higher: 220 to 223 °C for the first, 215 °C for the second.

First: CCS(=O)(=O)N(CCN(C)C)c1ccc(N/C(=C2\C(=O)Nc3ccccc32)c2ccccc2)cc1 [Example 307, (Z)-3-{1-[4-(N-(2-dimethylaminoethyl)-N-ethylsulphonyl-amino)-phenylamino]-1-phenyl-methylidene}-2-indolinone]
Second: CCCCS(=O)(=O)N(CCN(C)C)c1ccc(N/C(=C2\C(=O)Nc3ccccc32)c2ccccc2)cc1 [Example 453, (Z)-3-[1-(4-(N-(2-dimethylaminoethyl)-N-butylsulphonyl-amino)-phenylamino)-1-phenyl-methylidene]-2-indolinone]
The melting point of the first is higher: 245 °C for the first, 225 to 227 °C for the second.

Compared with `O=C1Nc2ccccc2/C1=C(/Nc1ccc(OCCCN2CCCCC2)cc1)c1ccccc1` [Example 287, (Z)-3-{1-[4-(3-piperidinopropyloxy)-phenylamino]-1-phenyl-methylidene}-2-indolinone], `O=C1Nc2ccccc2/C1=C(/Nc1ccc(NS(=O)(=O)CCN2CCCCC2)cc1)c1ccccc1` [Example 380, (Z)-3-{1-[4-(2-piperidinoethylsulphonylamino)-phenylamino]-1-phenyl-methylidene}-2-indolinone] is higher in melting point: 223 to 225 °C for the first, 225 to 227 °C for the second.

First: CN(C(=O)CN1CCNCC1)c1ccc(N/C(=C2\C(=O)Nc3ccc([N+](=O)[O-])cc32)c2ccccc2)cc1.Cl.Cl
Second: CN(C(=O)CN1CCN(Cc2ccccc2)CC1)c1ccc(N/C(=C2\C(=O)Nc3ccccc32)c2ccccc2)cc1 [Example 53, (Z)-3-{1-[4-(N-(4-benzylpiperazinomethylcarbonyl)-N-methyl-amino)-phenylamino]-1-phenyl-methylidene}-2-indolinone]
The melting point of the first is higher: 246 to 248 °C for the first, 157 to 158 °C for the second.

For `O=C(O)CNS(=O)(=O)c1ccc(N/C(=C2\C(=O)Nc3ccccc32)c2ccccc2)cc1` [Example 407, (Z)-3-{1-[4-(carboxymethylaminosulphonyl)-phenylamino]-1-phenyl-methylidene}-2-indolinone], the melting point was 236 °C (dec.).
With `CC(=O)Nc1cccc(N/C(=C2\C(=O)Nc3ccc([N+](=O)[O-])cc32)c2ccccc2)c1` [Example 89, (Z)-3-[1-(3-acetylamino-phenylamino)-1-phenyl-methylidene]-5-nitro-2-indolinone] the melting point was 318 to 320 °C (dec.).
